Target: Serine/threonine-protein kinase B-raf [V600E] (Homo sapiens, UniProt P15056, V600E)
Test: Kinase Activity Assay
Description: BRAF kinase assays were performed using the Z′-LYTE™ enzymatic assay (Invitrogen, USA). […] Titrations were performed using a 1:3 dilution. Assays were performed using Select Screen (Invitrogen).

Serine/threonine-protein kinase B-raf [V600E], sequence (P15056 2-766 V600E limits assumed): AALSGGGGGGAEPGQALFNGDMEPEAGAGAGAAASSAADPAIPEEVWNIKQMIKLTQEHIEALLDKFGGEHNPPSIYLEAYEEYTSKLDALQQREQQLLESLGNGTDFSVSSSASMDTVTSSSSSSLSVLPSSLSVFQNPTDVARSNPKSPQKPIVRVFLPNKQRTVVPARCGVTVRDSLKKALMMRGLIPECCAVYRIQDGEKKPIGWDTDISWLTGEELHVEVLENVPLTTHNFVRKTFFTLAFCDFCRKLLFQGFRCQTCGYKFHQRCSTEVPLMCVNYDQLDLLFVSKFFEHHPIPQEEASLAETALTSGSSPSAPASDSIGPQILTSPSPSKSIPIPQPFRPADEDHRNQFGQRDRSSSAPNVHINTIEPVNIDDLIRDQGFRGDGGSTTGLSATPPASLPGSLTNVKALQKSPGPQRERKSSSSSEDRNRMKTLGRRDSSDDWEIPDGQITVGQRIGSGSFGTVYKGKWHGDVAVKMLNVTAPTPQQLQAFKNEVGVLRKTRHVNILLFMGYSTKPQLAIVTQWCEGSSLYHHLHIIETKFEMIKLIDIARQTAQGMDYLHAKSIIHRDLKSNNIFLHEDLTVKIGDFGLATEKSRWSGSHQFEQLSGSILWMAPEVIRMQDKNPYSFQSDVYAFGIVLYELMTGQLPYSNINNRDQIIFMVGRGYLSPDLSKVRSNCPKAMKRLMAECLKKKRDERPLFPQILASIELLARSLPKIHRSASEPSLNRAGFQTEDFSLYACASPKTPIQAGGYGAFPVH

## COC(=O)N1CCN(CCNCc2ccc(NC(=O)c3ccc(C)c(C#Cc4cnc5cccnn45)c3)cc2C(F)(F)F)CC1 [US12440494, Compound 2]
  IC50: 17.8 nM

Source: BindingDB's records for patent US12440494 (Albert Einstein College of Medicine, 2025)
